From patent US20220133662A1, “ORAL DRUG, ADJUVANT CANCER THERAPY, AND PET THERAPEUTIC DIET” (priority 2019, published 2022)

Key:
COS7 cells = experiment: Survival rate of COS7 cells (MTT), ketone donors alone or with cisplatin; assay type: cell-based; conditions: 1 mM ketone donor added with cisplatin, versus untreated group
Protocol: (§1) COS7 cells, that are a renal cytoblastoma, were used. Subconfluent cells were spread on 24-well plates at a density of 40,000 cells/cm^2 and cultured in Dulbecco's Modified Eagle Medium (D-MEM) containing 10% of inactivated fetal bovine serum for one hour. Various concentrations of ketone bodies (HB) and ketone ester (KE) were added to the culture medium of COS7 cells and cultured for 24 hours. After 24 hours of culturing, the culture medium was removed, and COS7 cells were cultured for two hours in PBS with 1 mg/ml of a chromogenic reagent 3-(4,5-dimethylthiazol-2-yl)-2,5-diphenyl tetrazolium bromide (MTT, Wako Pure Chemical Corporation).
(§2) After the culturing, cell lysis solution (50% formamide, 20% sodium dodecyl sulfate) was added and left for 24 hours. Thereafter, the absorbance at 540 nm was measured using an absorbance measurement device (Biorad microplate reader), and the measured absorbance was used to calculate survival rates of COS7 cells.

Hela cells = experiment: Survival rate of Hela cells (MTT), ketone donors alone or with cisplatin; assay type: cell-based; conditions: 1 mM ketone donor with 0.3-3 μM of cisplatin, versus untreated group
Protocol: as §1, §2

[1] = cited from earlier work
[2] = in vivo; cited from earlier work
[3] = Ketone body concentration in the blood after a single ingestion in yogurt; assay type: in vivo; conditions: humans, 500 mg/kg of body weight in yogurt (200 g)
Protocol: PHB was extracted from OITC1261 by the method for purifying the powdered PHB shown in Example 2 (purity: 90%, weight-average molecular weight: 590,000). Ketone ester and PHB whose amounts were adjusted such that the intake thereof was 500 mg/kg of body weight were mixed uniformly in yogurt (200 g) and fed to humans. The ketone body concentration in the blood was measured using a ketone body value electrode (FS Precision ketone measurement electrode) of Precision Exceed (Abbott) every other hour. After ketone bodies were confirmed to be stable, plain yogurt was ingested.
The horizontal axis of the graph in FIG. 8 represents time. The vertical axis represents the ketone body concentration in the blood. Squares represent changes in the ketone body concentration in the blood over time in a group that ingested plain yogurt mixed with ketone ester. […]
The powdered PHB and ketone bodies whose amounts were adjusted such that the intake thereof was 500 mg, 300 mg, 100 mg, or 0 mg/kg of body weight were mixed uniformly in yogurt (200 g) and fed to humans. […] The ketone body concentration in the blood over time was measured using a ketone body value electrode (FS Precision ketone measurement electrode) of Precision Exceed (Abbott) every other hour. […]

Structure (SMILES)	adjuvant effect on toxicity caused by cisplatin (COS7 cells)	adjuvant effect on toxicity caused by cisplatin (Hela cells)	time in which ketone body concentration in the blood increases after ingestion ([1]; ketone bodies ingested)	share of ketone bodies transferred to the brain [2]	time after ingestion at which ketone body concentration in the blood returns to the original level [3]	increase of the ketone body concentration in the blood ([1]; ketone ester ingested)
C[C@@H](O)CC(=O)O [ketone bodies, (R)-3-β-hydroxybutyric acid]	significantly promoted the toxic effect caused by cisplatin	significantly promoted the toxic effects due to cisplatin	within a few minutes	20-30%		
C[C@@H](O)CCOC(=O)C[C@@H](C)O [ketone ester, 3-hydroxybutyl-3-hydroxybutyric acid]					about five	several mM in a few minutes
